The molecules below were run on VSV-g pseudotyped HIV vector that expresses luciferase (PHIV) (assay: microbe, parasite or virus in culture). Details: Human immunodeficiency virus 1, HEK-293T, 48 h, read-out: PHIV IC50.
Assay type: cell-based
Work on `C[C@@H]1[C@H](c2ccccc2)OC2Cn3cc(C(=O)NCc4ccc(F)cc4F)c(=O)c(O)c3C(=O)N21` (stereo partly drawn) [Example Z-15, (2S,3R)—N-[(2,4-Difluorophenyl)methyl]-6-hydroxy-3-methyl-5,7-dioxo-2-phenyl-2,3,5,7,11,11a-hexahydro[1,3]oxazolo[3,2-a]pyrido[1,2-d]pyrazine-8-carboxamide] yielded an IC50 of under 10 nM.
In the case of `O=C(NCc1ccc(F)cc1F)c1cn2c(c(O)c1=O)C(=O)N1[C@H](Cc3ccccc3)CO[C@H]1C2` [Example Z-16, (3R,11aS)—N-[(2,4-Difluorophenyl)methyl]-6-hydroxy-5,7-dioxo-3-(phenylmethyl)-2,3,5,7,11,11a-hexahydro[1,3]oxazolo[3,2-a]pyrido[1,2-d]pyrazine-8-carboxamide], the IC50 is reported as under 10 nM.
`CC(C)C[C@@H]1CO[C@H]2Cn3cc(C(=O)NCc4ccc(F)cc4F)c(=O)c(O)c3C(=O)N12` [Example Z-17, (3R,11aS)—N-[(2,4-Difluorophenyl)methyl]-6-hydroxy-3-(2-methylpropyl)-5,7-dioxo-2,3,5,7,11,11a-hexahydro[1,3]oxazolo[3,2-a]pyrido[1,2-d]pyrazine-8-carboxamide] gave an IC50 of under 10 nM.
Molecule `O=C(NCc1ccc(F)cc1F)c1cn2c(c(O)c1=O)C(=O)N1CC3CCCCN3[C@H]1C2` (stereo partly drawn) [Example Z-18, (3aR,14aR)—N-[(2,4-Difluorophenyl)methyl]-11-hydroxy-10,12-dioxo-1,2,3,4,5a,6,10,12,14,14a-decahydropyrido[1,2-d]pyrido[1′,2′:3,4]imidazo[1,2-d]pyrazine-9-carboxamide] has an IC50 of under 10 nM.
`COC[C@H]1[C@H](c2ccccc2)OC2Cn3cc(C(=O)NCc4ccc(F)cc4F)c(=O)c(O)c3C(=O)N21` (some centres unmarked) [Example Z-19] was tested, and the IC50 was under 10 nM.
`O=C(NCc1ccc(F)cc1F)c1cn2c(c(O)c1=O)C(=O)N1[C@@H](CC3CCCCC3)CO[C@@H]1C2` [Example Z-20] was tested, and the IC50 was 10 to 100 nM.
`CC(C)[C@H]1CO[C@@H]2Cn3cc(C(=O)NCc4ccc(F)cc4F)c(=O)c(O)c3C(=O)N12` [Example Z-21, (3S,11aR)—N-[(2,4-Difluorophenyl)methyl]-6-hydroxy-3-(1-methylethyl)-5,7-dioxo-2,3,5,7,11,11a-hexahydro[1,3]oxazolo[3,2-a]pyrido[1,2-d]pyrazine-8-carboxamide] showed an IC50 of under 10 nM.
With `O=C(NCc1ccc(F)cc1F)c1cn2c(c(O)c1=O)C(=O)N1C(C2)O[C@@H]2Cc3ccccc3[C@@H]21` (stereo partly drawn) [Example Z-22, (5aR,14aS)—N-[(2,4-Difluorophenyl)methyl]-12-hydroxy-11,13-dioxo-5a,6a,7,11,13,14a-hexahydro-5H-indeno[1′,2′:4,5][1,3]oxazolo[3,2-a]pyrido[1,2-d]pyrazine-10-carboxamide] the IC50 was under 10 nM.
`O=C(NCc1ccc(F)cc1F)c1cn2c(c(O)c1=O)C(=O)N1[C@H](C2)O[C@@H](c2ccccc2)[C@H]1c1ccccc1` [Example Z-23, (2S,3R,11aS)—N-[(2,4-Difluorophenyl)methyl]-6-hydroxy-5,7-dioxo-2,3-diphenyl-2,3,5,7,11,11a-hexahydro[1,3]oxazolo[3,2-a]pyrido[1,2-d]pyrazine-8-carboxamide] was tested, and the IC50 was under 10 nM.
In the case of `O=C(NCc1ccc(F)cc1F)c1cn2c(c(O)c1=O)C(=O)N1[C@H](c3ccccc3)[C@H](c3ccccc3)O[C@@H]1C2` [Example Z-24, (2S,3R,11aR)—N-[(2,4-Difluorophenyl)methyl]-6-hydroxy-5,7-dioxo-2,3-diphenyl-2,3,5,7,11,11a-hexahydro[1,3]oxazolo[3,2-a]pyrido[1,2-d]pyrazine-8-carboxamide], the IC50 is reported as under 10 nM.
With `CC(C)[C@@H]1CO[C@H]2Cn3cc(C(=O)NCc4ccc(F)cc4F)c(=O)c(O)c3C(=O)N21` [Example Z-25, (3R,11aS)—N-[(2,4-Difluorophenyl)methyl]-6-hydroxy-3-(1-methylethyl)-5,7-dioxo-2,3,5,7,11,11a-hexahydro[1,3]oxazolo[3,2-a]pyrido[1,2-d]pyrazine-8-carboxamide] the IC50 was under 10 nM.

— US11267823B2, “Substituted 1,2,3,3a,4,5,7,9,13,13a-decahydropyrido[1′,2′:4,5]pyrazino[1,2-a]pyrrolo[1,2-c]pyrimidines having HIV integrase inhibitory activity” (Shionogi & Co., Ltd., priority 2005, dated 2022)
